How the values were obtained:
NCI-H226 [1] = assay: Anticancer activity against human NCI-H226 cells assessed as cell growth at 0.1 uM incubated for 48 hrs by SRB assay; assay type: functional; details: read-out: Activity
MDA-MB-468 [2] = assay: Anticancer activity against human MDA-MB-468 cells assessed as cell growth at 0.1 uM incubated for 48 hrs by SRB assay; assay type: functional; details: read-out: Activity
MCF7 [3] = assay: Anticancer activity against human MCF7 cells assessed as inhibition of cell growth incubated for 48 hrs by SRB assay; assay type: functional; details: for CC50: read-out: LC50 (the source's name)
MDA-MB-435 [4] = assay: Anticancer activity against human MDA-MB-435 cells assessed as cell growth at 100 uM incubated for 48 hrs by SRB assay; assay type: functional; details: read-out: Activity
NCI-H226 [5] = assay: Anticancer activity against human NCI-H226 cells assessed as cell growth at 1 uM incubated for 48 hrs by SRB assay; assay type: functional; details: read-out: Activity
Cytochrome P450 1A1 = target: T1, Cytochrome P450 1A1 (Homo sapiens, UniProt P04798); assay: Inhibition of recombinant CYP1A1 (unknown origin) assessed as decrease in EROD activity using 7-ethoxyresorufin as substrate upto 100 uM incubated for 15 mins by resorufin dye based spectrofluorimetry; assay type: ADME; details: recombinant enzyme, 0.25 h
T1 sequence (P04798 whole entry): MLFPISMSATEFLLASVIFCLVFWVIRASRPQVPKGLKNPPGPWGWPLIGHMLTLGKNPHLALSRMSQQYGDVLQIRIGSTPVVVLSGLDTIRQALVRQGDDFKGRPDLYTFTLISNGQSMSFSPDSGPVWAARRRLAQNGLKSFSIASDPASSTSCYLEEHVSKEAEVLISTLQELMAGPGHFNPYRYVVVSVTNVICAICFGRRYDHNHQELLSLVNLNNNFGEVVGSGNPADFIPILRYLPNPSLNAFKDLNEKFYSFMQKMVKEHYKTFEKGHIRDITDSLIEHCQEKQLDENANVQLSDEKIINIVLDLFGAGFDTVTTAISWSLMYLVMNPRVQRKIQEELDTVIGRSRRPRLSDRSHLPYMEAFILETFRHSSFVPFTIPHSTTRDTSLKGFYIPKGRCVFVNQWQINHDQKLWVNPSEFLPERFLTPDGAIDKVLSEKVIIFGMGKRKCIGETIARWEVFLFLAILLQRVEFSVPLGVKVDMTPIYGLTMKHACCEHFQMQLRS

MDA-MB-468 [6] = assay: Anticancer activity against human MDA-MB-468 cells assessed as inhibition of cell growth incubated for 48 hrs by SRB assay; assay type: functional; details: for CC50: read-out: LC50 (the source's name)
CYP1A1 [7] = target: T2, CYP1A1 (Homo sapiens, UniProt P04798); assay: Inhibition of recombinant CYP1A1 (unknown origin) assessed as residual enzyme activity using 7-ethoxyresorufin as substrate at 1 uM incubated for 15 mins by resorufin dye based spectrofluorimetry (reference value: 100%); assay type: ADME; details: recombinant CYP1A1, probe 7-ethoxyresorufin, read-out: Activity
T2 sequence (P04798 whole entry): T1 sequence (P04798 whole entry)

MCF7 [8] = assay: Anticancer activity against human MCF7 cells assessed as cell growth at 1 uM incubated for 48 hrs by SRB assay; assay type: functional; details: read-out: Activity
MDA-MB-468 [9] = assay: Anticancer activity against human MDA-MB-468 cells assessed as cell growth at 100 uM incubated for 48 hrs by SRB assay; assay type: functional; details: read-out: Activity
CYP1A1 [10] = target: T2, CYP1A1; assay: Inhibition of recombinant CYP1A1 (unknown origin) assessed as residual enzyme activity using 7-ethoxyresorufin as substrate at 0.1 uM incubated for 15 mins by resorufin dye based spectrofluorimetry (reference value: 100%); assay type: ADME; details: recombinant CYP1A1, probe 7-ethoxyresorufin, read-out: Activity
MDA-MB-435 [11] = assay: Anticancer activity against human MDA-MB-435 cells assessed as inhibition of cell growth incubated for 48 hrs by SRB assay; assay type: functional
NCI-H226 [12] = assay: Anticancer activity against human NCI-H226 cells assessed as inhibition of cell growth incubated for 48 hrs by SRB assay; assay type: functional
NCI-H226 [13] = assay: Anticancer activity against human NCI-H226 cells assessed as cell growth at 100 uM incubated for 48 hrs by SRB assay; assay type: functional; details: read-out: Activity
MCF7 [14] = assay: Anticancer activity against human MCF7 cells assessed as cell growth at 0.1 uM incubated for 48 hrs by SRB assay; assay type: functional; details: read-out: Activity
MDA-MB-435 [15] = assay: Anticancer activity against human MDA-MB-435 cells assessed as cell growth at 0.1 uM incubated for 48 hrs by SRB assay; assay type: functional; details: read-out: Activity
NCI-H226 [16] = assay: Anticancer activity against human NCI-H226 cells assessed as cell growth at 10 uM incubated for 48 hrs by SRB assay; assay type: functional; details: read-out: Activity
CYP1A1 [17] = target: T2, CYP1A1; assay: Inhibition of recombinant CYP1A1 (unknown origin) assessed as residual enzyme activity using 7-ethoxyresorufin as substrate at 100 uM incubated for 15 mins by resorufin dye based spectrofluorimetry (reference value: 100%); assay type: ADME; details: recombinant CYP1A1, probe 7-ethoxyresorufin, read-out: Activity
CYP1A1 [18] = target: T2, CYP1A1; assay: Inhibition of recombinant CYP1A1 (unknown origin) assessed as residual enzyme activity using 7-ethoxyresorufin as substrate at 0.01 uM incubated for 15 mins by resorufin dye based spectrofluorimetry (reference value: 100%); assay type: ADME; details: recombinant CYP1A1, probe 7-ethoxyresorufin, read-out: Activity
CYP1A1 [19] = target: T2, CYP1A1; assay: Inhibition of recombinant CYP1A1 (unknown origin) assessed as residual enzyme activity using 7-ethoxyresorufin as substrate at 50 uM incubated for 15 mins by resorufin dye based spectrofluorimetry (reference value: 100%); assay type: ADME; details: recombinant CYP1A1, probe 7-ethoxyresorufin, read-out: Activity
CYP1A1 [20] = target: T2, CYP1A1; assay: Inhibition of recombinant CYP1A1 (unknown origin) assessed as residual enzyme activity using 7-ethoxyresorufin as substrate at 10 uM incubated for 15 mins by resorufin dye based spectrofluorimetry (reference value: 100%); assay type: ADME; details: recombinant CYP1A1, probe 7-ethoxyresorufin, read-out: Activity
MCF7 [21] = assay: Anticancer activity against human MCF7 cells assessed as cell growth at 100 uM incubated for 48 hrs by SRB assay; assay type: functional; details: read-out: Activity
MDA-MB-435 [22] = assay: Anticancer activity against human MDA-MB-435 cells assessed as cell growth at 1 uM incubated for 48 hrs by SRB assay; assay type: functional; details: read-out: Activity
MDA-MB-435 [23] = assay: Anticancer activity against human MDA-MB-435 cells assessed as cell growth at 10 uM incubated for 48 hrs by SRB assay; assay type: functional; details: read-out: Activity
MDA-MB-468 [24] = assay: Anticancer activity against human MDA-MB-468 cells assessed as cell growth at 10 uM incubated for 48 hrs by SRB assay; assay type: functional; details: read-out: Activity
MCF7 [25] = assay: Anticancer activity against human MCF7 cells assessed as cell growth at 10 uM incubated for 48 hrs by SRB assay; assay type: functional; details: read-out: Activity
MDA-MB-468 [26] = assay: Anticancer activity against human MDA-MB-468 cells assessed as cell growth at 1 uM incubated for 48 hrs by SRB assay; assay type: functional; details: read-out: Activity

Row | Structure (SMILES) | growth at 0.1 µM (NCI-H226 [1]) [%] | growth at 0.1 µM (MDA-MB-468 [2]) [%] | GI50 (MCF7 [3]) [µM] | TGI (MCF7 [3]) [µM] | CC50 (MCF7 [3]) [µM] | growth at 100 µM (MDA-MB-435 [4]) [%] | growth at 1 µM (NCI-H226 [5]) [%] | inhibition (INH) (Cytochrome P450 1A1) | GI50 (MDA-MB-468 [6]) [µM] | TGI (MDA-MB-468 [6]) [µM] | CC50 (MDA-MB-468 [6]) [µM] | activity at 0.25 h, 1 µM (CYP1A1 [7]) [%] | growth at 1 µM (MCF7 [8]) [%] | growth at 100 µM (MDA-MB-468 [9]) [%] | activity at 0.25 h, 0.1 µM (CYP1A1 [10]) [%] | GI50 (MDA-MB-435 [11]) [µM] | LC50 (MDA-MB-435 [11]) [µM] | TGI (MDA-MB-435 [11]) [µM] | GI50 (NCI-H226 [12]) [µM] | LC50 (concentration killing 50% of cells) (NCI-H226 [12]) [µM] | also measured
1 | Cc1cc(C)cc(O[C@H](C)C(=O)Nc2ccc(F)c([N+](=O)[O-])c2)c1 | 73.7 | 99.1 | 61.6 | > 100 | > 100 | 89.5 | 71.8 | Not Active | 40.9 | 79.1 | > 100 | 94.2 | 85.5 | -29.4 | 93.5 | > 100 | > 100 | > 100 | > 100 | > 100 | TGI (NCI-H226 [12]): > 100 µM; growth at 100 µM (NCI-H226 [13]): 58.2%; growth at 0.1 µM (MCF7 [14]): 89.3%; growth at 0.1 µM (MDA-MB-435 [15]): 100%; growth at 10 µM (NCI-H226 [16]): 65.6%; activity at 0.25 h, 100 µM (CYP1A1 [17]): 96.4%; activity at 0.25 h, 0.01 µM (CYP1A1 [18]): 98.8%; activity at 0.25 h, 50 µM (CYP1A1 [19]): 96.6%; activity at 0.25 h, 10 µM (CYP1A1 [20]): 95.7%; growth at 100 µM (MCF7 [21]): 27.8%; growth at 1 µM (MDA-MB-435 [22]): 100%; growth at 10 µM (MDA-MB-435 [23]): 100%; growth at 10 µM (MDA-MB-468 [24]): 95.9%; growth at 10 µM (MCF7 [25]): 73.5%; growth at 1 µM (MDA-MB-468 [26]): 97.9%
2 | Cc1ccc(-c2cc(C(N)=O)c3cc(Cl)ccc3n2)o1 | 84.8 | 91.9 | 63.9 | > 100 | > 100 | 77.2 | 76.6 | Not Active | > 100 | > 100 | > 100 | 101 | 92.5 | 72.5 | 101 | > 100 | > 100 | > 100 | 70.5 | > 100 | TGI (NCI-H226 [12]): > 100 µM; growth at 100 µM (NCI-H226 [13]): 39.9%; growth at 0.1 µM (MCF7 [14]): 98.2%; growth at 0.1 µM (MDA-MB-435 [15]): 98.4%; growth at 10 µM (NCI-H226 [16]): 60.5%; activity at 0.25 h, 100 µM (CYP1A1 [17]): 104%; activity at 0.25 h, 0.01 µM (CYP1A1 [18]): 98.5%; activity at 0.25 h, 50 µM (CYP1A1 [19]): 100%; activity at 0.25 h, 10 µM (CYP1A1 [20]): 98.6%; growth at 100 µM (MCF7 [21]): 25.5%; growth at 1 µM (MDA-MB-435 [22]): 95%; growth at 10 µM (MDA-MB-435 [23]): 87.2%; growth at 10 µM (MDA-MB-468 [24]): 85.9%; growth at 10 µM (MCF7 [25]): 79%; growth at 1 µM (MDA-MB-468 [26]): 90.6%
